According to article PMC9138090, “Study on the Neuroprotective, Radical-Scavenging and MAO-B Inhibiting Properties of New Benzimidazole Arylhydrazones as Potential Multi-Target Drugs for the Treatment of Parkinson’s Disease” (Antioxidants, 2022):

Experiments:
[1] = Fe(II)-induced oxidative damage of lecithin (TBA-RS); conditions: 90 µmol/L; for sample/control absorbance ratio (% of the control), lecithin peroxidation: lecithin 1 mg/mL, FeCl2 0.1 mmol/L
Procedure: The classical method of determining the TBA-reactive substances at 532 nm as described by Asakawa and Matsushita has been used. Two groups of measurement compositions named controls and samples were prepared in phosphate buffer (K2HPO4/KH2PO4, pH 7.4) for each of the used substrates. Both of them contained equivalent concentrations of lecithin (1 mg/mL) or 2-deoxyribose (0.5 mmol/L) and FeCl2 (0.1 mmol/L). In the controls, the tested hydrazones have been omitted and in the samples the effect of the newly designed compounds at the concentrations indicated below the figures has been determined. The obtained samples were incubated at 37 °C for 30 min. The reaction was stopped, and after adding 0.5 mL 2.8% trichloroacetic acid and 0.5 mL of thiobarbituric acid, the samples were heated in boiling water for 20 min. The lecithin containing samples were centrifuged at 3000 rpm for 20 min and the supernatant was aspired out. The results have been presented as a percentage of the control sample, treated only with ferrous iron where we expected maximum oxidative damage under the described conditions.

[2] = MTT cytotoxicity on SH-SY5Y cells; type: cell-based, human; conditions: human, SH-SY5Y neuroblastoma cells, MTT test, 24 h incubation; read-out: IC50, in vitro cytotoxicity on SH-SY5Y cells
Procedure: (§1) Human neuroblastoma cell line SH-SY5Y was obtained from the European Collection of Cell Cultures (ECACC, Salisbury, UK). The cells were maintained in 75 cm^2 flasks at 37 °C in a humidified atmosphere with 5% CO2 and cultured in RPMI 1640 medium, supplemented with 10% fetal bovine serum and 2 mM L-glutamine.
(§2) MTT (Sigma-Aldrich Chemie GmbH, Schnelldorf, Germany) assay is based on interaction between tetrazolium dye 3-(4,5-dimethylthiazol-2-yl)-2,5-diphenyltetrazolium bromide and succinic dehydrogenase in the living cells’ mitochondria. In this reaction, the formed purple formazan crystals indicate the presence of viable cells. SH-SY5Y cells were seeded in 96-well microplates at a density 2.5 × 10^4 cells/well and allowed to attach to the well surface at 37 °C in a humidified atmosphere with 5% CO2 (24 h). Different concentrations of compounds ([…]) were added to cells and incubated for 24 h. For each concentration, a set of at least 8 wells were used. After the treatment, the solution in each well was substituted with MTT (3-(4,5-dimethylthiazol-2-yl)-2,5-diphenyltetrazolium bromide) solution (0.5 mg/mL in culture medium). The microplates were further incubated for 3 h at 37 °C and the obtained formazan crystals were dissolved by 100 µL/well of DMSO. The absorbance was measured in a multiplate reader Synergy 2 (BioTek Instruments, Inc, Highland Park, Winooski, VT, USA) at 570 nm (690 nm for background absorbance).
(§3) An important step in the development of new pharmacologically active compounds is the establishment of their safety profile. An in vitro toxicity evaluation was carried out on the neuroblastoma cell line SH-SY5Y, which is a well-established model in neuroscience. The neuroblastoma SH-SY5Y are human derived cells with relatively homogeneous neuroblast-like structure. The cells express a dopamine-β-hydroxylase and tyrosine hydroxylase enzyme activity, specific types of human proteins and protein isoforms. The possible neurotoxic effects of the potential drug candidates were measured by cell viability assay (MTT-test). The IC50 values were used as a robust parameter for comparison. The test compounds were dissolved in DMSO and serially diluted in cell culture medium to achieve final concentrations ranging from 1 to 500 µM; the culture medium containing DMSO in the corresponding concentration was used as untreated controls. A concentration dependent effect on cell viability was observed after 24 h incubation.

[3] = molecular target: T1, human recombinant MAO-B (hMAO-B) enzyme (Homo sapiens, UniProt P27338); test: hMAO-B activity, Amplex UltraRed fluorometric method; type: biochemical; conditions: 1 µM
T1 construct: purchased Invitrogen, USA
T1 sequence (P27338 1-520): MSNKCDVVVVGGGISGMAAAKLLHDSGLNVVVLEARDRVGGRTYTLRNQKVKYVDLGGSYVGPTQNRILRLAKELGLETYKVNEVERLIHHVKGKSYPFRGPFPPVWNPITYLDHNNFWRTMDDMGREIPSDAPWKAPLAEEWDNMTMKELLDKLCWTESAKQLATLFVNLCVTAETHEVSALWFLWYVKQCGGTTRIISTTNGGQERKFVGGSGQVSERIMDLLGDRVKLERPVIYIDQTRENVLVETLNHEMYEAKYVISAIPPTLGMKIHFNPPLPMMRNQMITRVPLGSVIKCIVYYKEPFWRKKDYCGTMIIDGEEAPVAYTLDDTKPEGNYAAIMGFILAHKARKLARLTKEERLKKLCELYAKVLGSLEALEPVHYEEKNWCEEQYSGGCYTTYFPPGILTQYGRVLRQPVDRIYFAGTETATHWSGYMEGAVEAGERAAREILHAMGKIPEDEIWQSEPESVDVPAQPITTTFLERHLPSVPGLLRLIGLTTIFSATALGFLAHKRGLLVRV
Procedure: The effects of the test compounds on human recombinant MAO-B (hMAO-B) enzyme were studied by the Amplex UltraRed reagent (Sigma-Aldrich Chemie GmbH) fluorometric method with small modifications. The working solutions of the compounds, reagents, hMAO-B, and reaction buffers were prepared according to the producer’s instructions. The tyramine hydrochloride was used as a substrate. The reaction mixture contained a stock solution of Amplex Red (10 mM in dimethyl sulfoxide), the reaction buffer (0.05 M sodium phosphate) at pH 7.4, and the storage solution of horseradish peroxidase (10 U/mL). There were pure MAO-B working solutions in the reaction buffer and MAO-B working solution containing hydrogen peroxide as controls. The final concentration of the test compounds in the well was 1 μM. The compounds together with hMAO-B were embedded in a 96-well plate (8 wells for each compound), and then the plate was incubated for 30 min (dark, at 37 °C). Thereafter, the reaction was initiated by 50 μL Mix Solution: Amplex®Red reagent, horseradish peroxidase, and tyramine as an enzyme substrate in the reaction buffer. The fluorescence was measured every 30 min at 0, 30, 60, 90, 120, and 150 min), in dark, while shaking the reaction mixture at constant temperature of 37 °C. The fluorimetric measurements were assessed using a Synergy 2 Microplate Reader.
Monoamine oxidase B catalyzes dopamine metabolism and oxidation leading to the formation of reactive oxygen species and reactive quinones, which provoke dopamine neurotoxicity and neurodegeneration. In the next experiments, the compounds showing the best safety profile and the most promising neuroprotective activity (3d, 3e, 3h, 3i, 3m, 3n, 3p) were evaluated for their potential inhibitory activity on hMAOB. Selegiline and rasagiline as potent MAO-B inhibitors were used as standard compounds for comparison.

SH-SY5Y cells = test: MTT cytotoxicity on SH-SY5Y cells; type: cell-based, human; conditions: MTT test, 24 h incubation; read-out: IC50, in vitro cytotoxicity on SH-SY5Y cells
Procedure: as §1, §2, §3

Row | Compound | sample/control absorbance ratio (% of the control), lecithin peroxidation [1] | melting point [°C] | IC50 at 24 h [2] [µM] | lecithin peroxidation effect compared with 3a (in words) [1] | inhibitory effect on hMAOB activity (in words) [3] | IC50 (SH-SY5Y cells) [µM]
1 | O=C(CCn1c(=S)n(CCC(=O)N/N=C/c2ccccc2)c2ccccc21)N/N=C/c1ccccc1 [3a] | 66.52% | 246 to 248 | 103 |  |  | 
2 | COc1cc(C=NNC(=O)CCn2c(=S)n(CCC(=O)NN=Cc3ccc(O)c(OC)c3)c3ccccc32)ccc1O [3b, 3,3′-(2-Thioxo-1H-benzo[d]imidazole-1,3(2H)-diyl)bis(N′-(4-hydroxy-3-methoxybenzylidene)propanehydrazide)] |  | 229 to 231 | 101 |  |  | 
3 | COc1ccc(C=NNC(=O)CCn2c(=S)n(CCC(=O)NN=Cc3ccc(OC)c(OC)c3)c3ccccc32)cc1OC [3c, 3,3′-(2-Thioxo-1H-benzo[d]imidazole-1,3(2H)-diyl)bis(N′-(3,4 dimethoxybenzylidene)propanehydrazide)] |  | 239 to 241 | 112 | statistically identical effect to 3a |  | 
4 | COc1cc(C=NNC(=O)CCn2c(=S)n(CCC(=O)NN=Cc3cc(OC)c(O)c(OC)c3)c3ccccc32)cc(OC)c1O [3d, 3,3′-(2-Thioxo-1H-benzo[d]imidazole-1,3(2H)-diyl)bis(N′-(4-hydroxy-3,5-dimethoxybenzylidene)propanehydrazide)] | around 40% | 284 to 286 | > 250 |  | statistically significant MAO-B inhibitory effects | 268
5 | O=C(CCn1c(=S)n(CCC(=O)NN=Cc2cccc(O)c2)c2ccccc21)NN=Cc1cccc(O)c1 [3f, 3,3′-(2-Thioxo-1H-benzo[d]imidazole-1,3(2H)-diyl)bis(N′-(3-hydroxybenzylidene)propanehydrazide)] |  | 223 to 224 | 77.7 |  |  | 
6 | O=C(CCn1c(=S)n(CCC(=O)NN=Cc2ccc(O)cc2)c2ccccc21)NN=Cc1ccc(O)cc1 [3g, 3,3′-(2-Thioxo-1H-benzo[d]imidazole-1,3(2H)-diyl)bis(N′-(4-hydroxybenzylidene)propanehydrazide)] |  | 281 to 283 | 77.8 |  |  | 
7 | O=C(CCn1c(=S)n(CCC(=O)NN=Cc2ccc(O)c(O)c2)c2ccccc21)NN=Cc1ccc(O)c(O)c1 [3j, 3,3′-(2-Thioxo-1H-benzo[d]imidazole-1,3(2H)-diyl)bis(N′-(3,4-dihydroxybenzylidene)propanehydrazide)] | around 40% | 212 to 214 | 187 |  |  | 
8 | O=C(CCn1c(=S)n(CCC(=O)NN=Cc2ccc(O)c(O)c2O)c2ccccc21)NN=Cc1ccc(O)c(O)c1O [3k, 3,3′-(2-Thioxo-1H-benzo[d]imidazole-1,3(2H)-diyl)bis(N′-(2,3,4-trihydroxybenzylidene)propanehydrazide)] |  | 279 to 280 | 65.3 | statistically identical effect to 3a |  | 
9 | COc1cccc(C=NNC(=O)CCn2c(=S)n(CCC(=O)NN=Cc3cccc(OC)c3O)c3ccccc32)c1O [3l, 3,3′-(2-Thioxo-1H-benzo[d]imidazole-1,3(2H)-diyl)bis(N′-(2-hydroxy-3-methoxybenzylidene)propanehydrazide)] |  | 268 to 270 | > 200 |  |  | 200
10 | COc1cccc(O)c1C=NNC(=O)CCn1c(=S)n(CCC(=O)NN=Cc2c(O)cccc2OC)c2ccccc21 [3n, 3,3′-(2-Thioxo-1H-benzo[d]imidazole-1,3(2H)-diyl)bis(N′-(2-hydroxy-6-methoxybenzylidene)propanehydrazide)] |  | 272 to 274 | > 250 |  | statistically significant MAO-B inhibitory effects | 269
11 | COc1ccc(C=NNC(=O)CCn2c(=S)n(CCC(=O)NN=Cc3ccc(OC)c(O)c3)c3ccccc32)cc1O [3o, 3,3′-(2-Thioxo-1H-benzo[d]imidazole-1,3(2H)-diyl)bis(N′-(3-hydroxy-4-methoxybenzylidene)propanehydrazide)] |  | 255 to 257 | 73.6 |  |  | 
12 | COc1cc(O)ccc1C=NNC(=O)CCn1c(=S)n(CCC(=O)NN=Cc2ccc(O)cc2OC)c2ccccc21 [3p, 3,3′-(2-Thioxo-1H-benzo[d]imidazole-1,3(2H)-diyl)bis(N′-(4-hydroxy-2-methoxybenzylidene)propanehydrazide)] |  | 205 to 207 | > 250 |  | statistically significant MAO-B inhibitory effects | 254
13 | COc1cc(/C=N/NC(=O)CCn2c(=S)n(CCC(=O)N/N=C/c3cc(O)c(O)c(OC)c3)c3ccccc32)cc(O)c1O [3q, 3,3′-(2-Thioxo-1H-benzo[d]imidazole-1,3(2H)-diyl)bis(N′-(3,4-hydroxy-5-methoxybenzylidene)propanehydrazide)] | around 40% | 174 to 176 | 77.7 |  |  | 
14 | O=c1c(O)c(-c2ccc(O)c(O)c2)oc2cc(O)cc(O)c12 [Quercetin, reference compound] | around 25% |  |  |  |  | 
15 | Cc1c(C)c2c(c(C)c1O)CCC(C)(C(=O)O)O2 (centres unmarked) [Trolox, reference compound] | around 25% |  |  |  |  | 
